Source: PMC6222316, “UPLC-MS/MS Method for the Determination of 14 Compounds in Rat Plasma and Its Application in a Pharmacokinetic Study of Orally Administered Xiaoyao Powder” (Molecules : A Journal of Synthetic Chemistry and Natural …, 2018)
Like-named read-outs stand apart in the source and are kept apart here.

Test: Pharmacokinetic study of 14 compounds in rat plasma after oral administration of XYP (UPLC-MS/MS)
Format: in vivo, Sprague–Dawley rats
Design: Kel (elimination rate constant): unit not given here
Conditions: oral XYP 4 g/kg; for AUC(0-inf) / AUC(0-t) / Cmax / half-life / MRT last / MRT inf / Tmax: female, Sprague-Dawley; for MRT last: n = 6, read-out: MRT0–t; for MRT inf: n = 6, read-out: MRT0–∞; for Tmax: rat, plasma, po, 4 g/kg
Description: The validated UPLC-MS/MS method was successfully applied to the pharmacokinetic study of 14 compounds in rat plasma after the oral administration of XYP at a dose of 4 g/kg (8-fold the clinical dosage).
Quantitative analysis was conducted on a Waters® Micromass® Quattro Premier™ XE triple-quadrupole tandem mass spectrometer (Waters Corp., Milford, MA, USA). Chromatographic separation was performed on an ACQUITY UPLCTM BEH C18 column (1.7 µm, 50 × 2.1 mm; Waters Corp.) equipped with an ACQUITY UPLC C18 guard column. The column temperature was maintained at 35 °C. The mobile phase consisted of 0.1% formic acid in water (A) and acetonitrile (B). The total flow rate was 0.3 mL/min. Chromatographic separation was achieved using a 14.5-min gradient elution. The gradient conditions of the mobile phase were as follows: 0–4 min, 4–22% (B); 4–5 min, 22–27% (B); 5–10 min, 27–50% (B); and 10–14.5 min, 50–96% (B). The samples were kept at 4 °C in the auto-sampler, and the injection volume was 5 µL.
Methanol (1.5 mL), 10 μg/mL IS and 300 μL plasma was mixed, then vortexed for 1 min. After centrifuging at 14,000× g for 10 min, the supernatant was put into another centrifuge tube. The residue was vortexed with another 1.5 mL methanol and centrifuged again, and the two supernatants were combined and evaporated to dryness under a flow of nitrogen gas at 40 °C. The residue was then dissolved in 100 μL methanol and vortexed for 1 min. Finally, the vortexing and centrifugation process was again repeated, and 5 μL of the supernatant was injected into the UPLC-MS/MS system for analysis.
Twenty healthy female Sprague–Dawley rats (300 ± 20 g) were purchased from the Animal Safety Evaluation Center of Heilongjiang University of Chinese Medicine (Heilongjiang, China). All protocols for animal experiments were approved in accordance with the Regulations of Experimental Animal Administration issued by the State Commission of Science and Technology of the People’s Republic of China. The rats were kept under a light/dark cycle of 12 h, within the temperature range of 24 °C ± 2 °C to room temperature, and at a humidity of 50 ± 10%. All rats were fasted for 12 h before experimentation but were allowed to drink freely. XYP extract was dissolved in water, and the rats were administrated orally with 4 g/kg XYP. Blood samples were collected from the suborbital venous lexus at 0, 0.083, 0.17, 0.33, 0.50, 0.75, 1.0, 2.0, 4.0, 8.0, 12 and 24 h into 1.5-mL heparinized polythene tubes […]. The blood samples were immediately centrifuged at 4500 rpm for 10 min, and the plasma was stored at −80 °C until analysis. The pharmacokinetic parameters (Cmax, tmax, t1/2, Kel, AUC0–t, AUC0–∞, MRT0–t, MRT0–∞) were calculated with the software Winnolin 3.2.

[1] = mean ± SD, n = 6, read-out: tmax
[2] = read-out: tmax (time to maximum plasma concentration)

SMILES	AUC(0-inf) (mean ± SD, n = 6) [ng·h/mL]	AUC(0-t) (mean ± SD, n = 6) [ng·h/mL]	Cmax (mean ± SD, n = 6) [ng/mL]	half-life (mean ± SD, n = 6) [h]	MRT last (mean ± SD) [h]	MRT inf (mean ± SD) [h]	Tmax [1] [h]	Kel (elimination rate constant) (mean ± SD, n = 6)	Tmax [2] [h]	time of first detection in plasma [min]	shape of plasma concentration-time curve	time of second maximal plasma concentration	t1/2 (mean ± SD, n = 6) [h]
CC12CC(O)C3CC1(OC1OC(CO)C(O)C(O)C1O)C3(COC(=O)c1ccccc1)C(=O)O2 (centres unmarked) [Albiflorin, albiflorin]	135 ± 65.6	128 ± 64.9	58.3 ± 27.5	7.11 ± 4.57	4.18 ± 1.58	6.34 ± 4.5	0.39 ± 0.09	0.13 ± 0.06	–	–	–	–	–
C=C1CCC[C@]2(C)C[C@@H]3OC(=O)C(C)=C3C[C@@H]12 [Atractylenolide II, atractylenolide II]	70.2 ± 25.6	69.5 ± 25.7	22.5 ± 8.04	3.54 ± 1.21	4.15 ± 0.82	4.43 ± 0.98	0.64 ± 0.29	0.21 ± 0.07	–	–	–	–	–
C=C1CCC[C@]2(C)C[C@]3(O)OC(=O)C(C)=C3C[C@@H]12 [Atractylenolide III, atractylenolide III]	1130 ± 487	1040 ± 497	230 ± 108	6.95 ± 2.65	6.23 ± 1.55	8.6 ± 3.13	0.67 ± 0.26	0.11 ± 0.05	–	–	–	–	–
COc1cc(/C=C/C(=O)O)ccc1O [Ferulic acid, ferulic acid]	1610 ± 853	1580 ± 851	632 ± 244	5.3 ± 1.85	3.97 ± 0.8	4.66 ± 0.52	0.21 ± 0.1	0.15 ± 0.05	0.2	5	–	–	–
CC1(C)[C@@H](O[C@H]2O[C@H](C(=O)O)[C@@H](O)[C@H](O)[C@H]2O[C@@H]2O[C@H](C(=O)O)[C@@H](O)[C@H](O)[C@H]2O)CC[C@]2(C)[C@H]3C(=O)C=C4[C@@H]5C[C@@](C)(C(=O)O)CC[C@]5(C)CC[C@@]4(C)[C@]3(C)CC[C@@H]12 [Glycyrrhizic acid, glycyrrhizic acid]	156 ± 59.6	138 ± 57	18.6 ± 6.61	7.63 ± 5.35	10.1 ± 0.58	13.6 ± 5.72	0.33 ± 0.11	0.12 ± 0.05	–	–	double peaks	–	–
O=C(/C=C/c1ccc(O)cc1)c1ccc(O)cc1O [Isoliquiritigenin, isoliquiritigenin]	185 ± 89.9	157 ± 76.7	33.6 ± 9.37	5.82 ± 3.25	5.98 ± 1.5	7.81 ± 3.39	0.39 ± 0.09	0.17 ± 0.12	–	–	double peak	about 4 h	–
CCC/C=C1\OC(=O)C2=C1CCC=C2 [Ligustilide, ligustilide]	207 ± 58.5	194 ± 57.7	65 ± 42.2	5.44 ± 3.09	5.63 ± 2.32	7.47 ± 4.23	0.31 ± 0.13	0.17 ± 0.10	~0.3	–	–	–	–
O=C1C[C@@H](c2ccc(O)cc2)Oc2cc(O)ccc21 [Liquiritigenin, liquiritigenin]	328 ± 198	286 ± 144	33.2 ± 12	6.43 ± 2.42	8.85 ± 1.09	11.5 ± 3.02	0.19 ± 0.07	0.12 ± 0.06	–	–	double peak	about 4 h	–
O=C1C[C@@H](c2ccc(O[C@@H]3O[C@H](CO)[C@@H](O)[C@H](O)[C@H]3O)cc2)Oc2cc(O)ccc21 [Liquiritin, liquiritin]	181 ± 90.9	163 ± 91.5	57.9 ± 36.6	–	5.7 ± 1.25	10.2 ± 6.79	0.39 ± 0.09	0.09 ± 0.04	–	–	double peak	–	9.32 ± 5.49
C[C@@]12C[C@@]3(O)O[C@@H](O1)[C@]1(COC(=O)c4ccccc4)[C@H]3C[C@@]12O[C@@H]1O[C@H](CO)[C@@H](O)[C@H](O)[C@H]1O [Paeoniflorin, paeoniflorin]	718 ± 227	697 ± 211	587 ± 181	4.82 ± 1.71	4.17 ± 1.38	4.91 ± 1.68	0.42 ± 0.09	0.16 ± 0.06	–	–	–	–	–
O=c1c(O)c(-c2ccc(O)c(O)c2)oc2cc(O)cc(O)c12 [Quercetin, quercetin]	782 ± 415	766 ± 410	491 ± 168	4.09 ± 1.24	6.4 ± 0.85	7.03 ± 1.02	0.1 ± 0.03	0.19 ± 0.07	0.1	–	–	~8 h	–
C[C@H]1O[C@@H](O[C@H]2CC[C@@]3(C)[C@@H](CC[C@]4(C)[C@@H]3C=C[C@]35OC[C@@]6(CCC(C)(C)C[C@H]63)[C@@H](O)C[C@]54C)[C@]2(C)CO)[C@H](O)[C@@H](O[C@@H]2O[C@H](CO)[C@@H](O)[C@H](O)[C@H]2O)[C@H]1O [Saikosaponin a, saikosaponin a]	18 ± 6.88	16.3 ± 5.15	6.05 ± 1.3	6.46 ± 2.57	6.61 ± 1.12	8.88 ± 3.49	0.42 ± 0.09	0.12 ± 0.03	–	–	double peaks	–	–
C[C@@H]1O[C@@H](O[C@H]2[C@H](O)[C@@H](O)[C@H](O[C@H]3CC[C@]4(C)[C@H]5C=C[C@]67OC[C@@]8(CCC(C)(C)C[C@H]86)[C@@H](O)C[C@@]7(C)[C@]5(C)CC[C@H]4C3(C)C)O[C@@H]2CO[C@@H]2O[C@H](CO)[C@@H](O)[C@H](O)[C@H]2O)[C@H](O)[C@H](O)[C@H]1O [Saikosaponin c, saikosaponin c]	5.93 ± 2.19	5.61 ± 1.92	0.96 ± 0.33	4.23 ± 2.83	6.49 ± 1.17	7.67 ± 2.7	0.42 ± 0.09	0.22 ± 0.11	–	–	double peaks	–	–
CCC/C=C1\OC(=O)C2=C1CC[C@H](O)[C@H]2O [Senkyunolide I, senkyunolide I]	1620 ± 967	1580 ± 986	403 ± 201	4.75 ± 2.78	5.31 ± 0.72	6.37 ± 2.39	0.36 ± 0.13	0.18 ± 0.07	–	–	–	–	–
